Assay results as given in patent US20260021092A1, “STRUCTURE-BASED DESIGN OF A NOVEL CLASS OF DRUGS FOR NEURODEGENERATIVE DISEASE” (The Regents of the University of California, priority 2022, published 2026).
Entries after “also recorded” stand apart in the source; their conditions may differ.

Assays:
[1] = test system: Neuro-2a (N2a) neuronal cells; assay: MTT cell viability assay of N2a cells treated with alpha-synuclein fibrils; type: cell-based; settings: final alpha-synuclein fibril concentration of 1 μM, various compound concentrations
Protocol: Alpha-synuclein aggregates, particularly oligomers, are known to be cytotoxic to neurons^4. Thus, we next determined if disaggregation of alpha-synuclein aggregates by our compounds mitigates their cytotoxicity. […] The fibril and compound mixtures were then added to cultured Neuro-2a (N2a) neuronal cells, to a final alpha-synuclein fibril concentration of 1 μM.
All experiments were performed in triplicate. […] Removal from the incubator and replacement of well media with 100 μL of 100% DMSO halted the assay. Absorbance was measured at 570 nm using a SpectraMax M5 reader. A background reading at 700 nm was subtracted from the 570 nm reading. Well readings were normalized to vehicle alone treated cells (designated as 100% viable) and cells treated with 100% DMSO (designated as 0% viable).

[2] = target: T1, MSA brain-derived alpha-synuclein fibrils (Homo sapiens, UniProt P37840); assay: EM quantification of MSA brain-derived alpha-synuclein fibrils; type: biochemical; settings: incubated for 3 days, compared to control
T1 construct: Extraction of sarkosyl-insoluble alpha-synuclein fibrils from neuropathologically confirmed brain samples of patients diagnosed with MSA; from tissue; host or cells: post-mortem MSA patient brain
Protocol: Post-mortem alpha-synuclein fibrils were extracted and purified from the brain of a patient with MSA. The presence of fibrils in the extract was confirmed by electron microscopy (FIG. 3a). […] As with the recombinant fibrils, we next aimed to quantitatively assess brain-derived fibril disaggregation by EM. Compounds were incubated with MSA fibrils for 3 days, and fibrils were quantified by EM daily, with 10-15 images taken per experimental replicate.
For all transmission electron microscopy (TEM), 6 μL of sample were added onto 400 mesh Formvar Carbon film copper mesh grids (Electron Microscopy Sciences), then incubated for four minutes. 6 μL of 2% uranyl acetate solution was then used to stain the grids. After 2 minutes, excess solution was blotted off and grids were left to dry for a minimum of 30 minutes. TEM images were taken on a Tecnai 12 transmission electron microscope. For quantitation of fibrils, n=20 TEM images were taken per experimental condition from random points throughout the grid. Fibril counts were manually quantified per image in a blinded fashion.
Compounds were incubated quiescently with fibril samples (both recombinant and brain-derived) for 72 hours at 37° C. […]

[3] = target: T2, recombinant alpha-synuclein fibrils (Homo sapiens, UniProt P37840); assay: Western blot of alpha-synuclein fibrils treated with compound; type: biochemical; settings: 48 hours with compound
T2 construct: made in house; host or cells: E. coli BL21(DE3) Gold
Protocol: Both compounds were incubated with equimolar ratios of recombinant alpha-synuclein fibrils (100 μM:100 μM) for 48 hours at 37° C. in 1×PBS. After incubation, Thioflavin T (ThT), a fluorescent marker of amyloid fibrils, was added to the samples and ThT fluorescence was measured. EGCG was used as a positive control for comparison. […] Next, transmission electron microscopy (EM) was performed for each sample. […] To obtain a quantitative evaluation of fibril reduction, fibrils were first incubated for 72 hours with compound, then 10 micrographs from random grid points were taken for each sample, and the numbers of fibrils per image were counted (FIG. 5c). […] Western blot analysis, staining for alpha-synuclein, was performed for fibril samples incubated with compounds for 48 hours (FIG. 5d). For untreated alpha-synuclein fibrils, we see a prominent band at 14 kDa corresponding with protein monomer. […]
Samples were loaded onto a NuPAGE 12% Bis-Tris pre-cast protein gel and ran for 35 minutes at 200 V. To transfer protein from the gel to a nitrocellulose membrane an iBLOT2 dry blotting system was used. […] Signal was detected with Pierce ECL Plus Western Blotting Substrate (Cat #32132), and blot was imaged with a Pharos FX Plus Molecular Imager.

[4] = target: α-synuclein fibrils (Homo sapiens, UniProt P37840); assay: Table A function: disaggregators of amyloid fibrils (alpha-synuclein)
[5] = test system: AD brain-derived tau fibrils; assay: Negative-stain EM and quantitative EM (qEM) of tau fibrils after compound incubation
Protocol: We then scrutinized the four CNS-Set inhibitors by quantitative EM (qEM) imaging (FIG. 3c, see Methods).
Negatively stained EM Grids were prepared by depositing 6 μl of sample on formvar/carbon coated copper grids (400 mesh) for 3 min with. Sample was rapidly wicked using filter paper without drying the grid, and stained with 1% uranyl acetate for 2 min. […] Fibrils were counted from collections of 33 micrographs (in triplicate) for each experimental condition.

[6] = target: AD-tau fibrils seeding HEK293 cells expressing tau-K18 P301S-eYFP (Homo sapiens, UniProt P10636); assay: Tau biosensor cell seeding assay; type: cell-based; set-up: dose or concentration left out as unconfirmed; settings: screen; final inhibitor concentration on the biosensor cells
Protocol: Disaggregating molecules that produce active seeds are undesirable for therapy and are excluded from further study. HEK293T cells expressing CFP- or YFP-fused tau are transduced with exogenous AD tau fibrils.
Inhibitors were dissolved in DMSO. […] The number of seeded aggregates was determined by imaging the entire well of a 96-well plate in triplicate using a Celigo Image Cytometer (Nexcelom) in the YFP channel. […] The number of aggregates was normalized to the confluence of each well, and dose-response plots were generated by calculating the average and standard deviations from triplicate measurements.

[7] = test system: AD brain-derived tau fibrils; assay: Dot blot of AD tau aggregates with antibody GT38 during EGCG incubation; type: biochemical, human; settings: EGCG incubation 1, 3, 6 and 24 hours at 37°
Protocol: Brain-derived tau PHFs were incubated with 80 μM EGCG at 37° C. in PBS various lengths of time. Samples were spotted onto nitrocellulose membrane, 20 μL were spotted for each condition, spotting 2 μL at a time and allowing to dry in between. Membrane was blocked for 1 hour in TBST with 5% milk and washed with TBST three times. Membrane was then incubated with primary antibody (either anti-tau GT38 (obtained from Virginia Lee lab at UPenn) or anti-phospho-tau AT8 (cat #MN1020, lot #UL2906281Z), 1:4000 dilution in 2% milk/TBST solution) for 1 hour, washed three times with TBST, incubated with horseradish peroxidase-conjugated secondary antibody (goat anti-mouse IgG H and L (HRP); 1:5000 Dilution in 2% milk/TBST), and washed three times in TBST. Signal was detected with Pierce ECL Plus Western Blotting Substrate (cat #32132), and blot was imaged with a Pharos FX Plus Molecular Imager.

Chain of AD-tau fibrils seeding HEK293 cells expressing tau-K18 P301S-eYFP (P10636 623-695 limits assumed, stated change not applied): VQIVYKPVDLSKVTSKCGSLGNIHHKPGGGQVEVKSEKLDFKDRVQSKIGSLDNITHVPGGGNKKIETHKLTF

Compound	rescue of alpha-synuclein fibril cytotoxicity [1]	average number of imaged MSA fibrils [2]	higher molecular weight alpha-synuclein species by Western blot [3]	Function [4]	appearance of fibrils in negative stain electron micrographs ([5]; 3-hour EGCG incubation)	appearance of fibrils in negative stain electron micrographs ([5]; 24 hours of EGCG incubation)	fibrils seen by electron microscopy (qualitative) ([5]; tau fibrils treated with each compound)	inhibition of seeding in tau biosensor cells (in words) [6]	time at which reduction in GT38-positive tau aggregate level begins [7] [h]
Cc1cc(C)c(NC(=O)Cn2nc3c4c(cccc4c2=O)-c2ccccc2-3)c(C)c1 [CNS-11, N-mesityl-2-(3-oxoindeno[1,2,3-de]phthalazin-2(3H)-yl)acetamide]	no rescue of toxicity at any concentration; also recorded: unable to rescue	reduction in average number of imaged fibrils	reduction in the higher molecular weight species						
Cc1cccc(C)c1NC(=O)Cn1nc(Cc2ccccc2)c2ccccc2c1=O [CNS-11g, 2-(4-benzyl-1-oxophthalazin-2-yl)-N-(2,6-dimethylphenyl)acetamide]		reduction in average number of imaged fibrils	reduction in the higher molecular weight species	Dissociate α- synuclein fibrils					
O=C(O[C@@H]1Cc2c(O)cc(O)cc2O[C@@H]1c1cc(O)c(O)c(O)c1)c1cc(O)c(O)c(O)c1 [EGCG, epigallocatechin gallate]					largely intact but somewhat swollen	nearly gone	Few fibrils	prevents the formation of any seeds	1 to 3
